Measured values: article PMC7076710, “Synthesis, Identification, and Structure–Activity Relationship Analysis of GATA4 and NKX2-5 Protein–Protein Interaction Modulators” (Journal of Medicinal Chemistry, 2019)

What was measured:
Assay type in all cases: cell-based
[1] = target: T1, GATA4–NKX2-5 transcriptional synergy (Mus musculus, UniProt P42582+Q08369); assay: GATA4–NKX2-5 transcriptional synergy luciferase reporter assay (3xNKE reporter, COS-1 cells)
T1 construct: expressed in transfected cells; host or cells: COS-1
T1 sequence (Q08369 whole entry): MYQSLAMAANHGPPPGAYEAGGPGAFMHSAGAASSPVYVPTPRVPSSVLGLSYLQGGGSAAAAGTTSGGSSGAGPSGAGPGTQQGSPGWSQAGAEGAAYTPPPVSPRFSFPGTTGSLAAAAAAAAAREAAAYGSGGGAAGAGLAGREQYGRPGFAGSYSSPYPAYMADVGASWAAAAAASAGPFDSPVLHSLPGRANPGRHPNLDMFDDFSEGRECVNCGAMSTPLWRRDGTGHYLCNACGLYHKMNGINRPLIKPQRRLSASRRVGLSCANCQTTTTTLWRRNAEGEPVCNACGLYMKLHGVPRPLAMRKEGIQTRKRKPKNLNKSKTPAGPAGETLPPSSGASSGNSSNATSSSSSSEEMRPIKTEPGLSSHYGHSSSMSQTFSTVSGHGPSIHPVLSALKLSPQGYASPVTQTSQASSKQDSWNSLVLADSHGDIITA
T1 sequence (P42582 whole entry): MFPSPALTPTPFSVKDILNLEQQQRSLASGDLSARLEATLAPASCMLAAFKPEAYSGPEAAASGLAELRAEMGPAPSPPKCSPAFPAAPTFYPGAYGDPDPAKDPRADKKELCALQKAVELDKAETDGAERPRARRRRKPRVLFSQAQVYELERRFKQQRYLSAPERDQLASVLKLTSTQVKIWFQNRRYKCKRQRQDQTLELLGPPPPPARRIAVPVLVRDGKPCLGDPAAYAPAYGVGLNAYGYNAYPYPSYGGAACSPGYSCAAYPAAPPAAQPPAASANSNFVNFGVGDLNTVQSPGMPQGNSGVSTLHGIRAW

COS-1 cells [2] = assay: LDH assay (necrosis)
Text: (§1) To investigate the toxicity as a potential cause of decreased or increased activity in luciferase reporter gene assays, we tested a set of 40 active compounds in the COS-1 cell line used for the luciferase assays. Concentration-dependent toxic effects were investigated using the lactate dehydrogenase (LDH) assay to detect necrosis and the 3-(4,5-dimethylthiazol-2-yl)-2,5-diphenyltetrazolium bromide (MTT) assay as a measure of cell viability. […] For the data analysis, compounds were classified as toxic (Figures 5 and 7) if they induced a >10% decrease in cell viability in the MTT assay at the concentration of 10 μM. The most toxic compounds (35a, 35d, 54, 58, and 63–65) in the MTT assay all contained a phenyl substituent in the southern part ring, while the ortho-nitrophenyl-derivative 39g and the phenyl-substituted thiophene 47t were nontoxic. Higher flexibility in the central parts of the ethers (35a, 35d) and N-acylated amines (58, 64) might contribute to their toxicity, because less rigid compounds are more likely to have affinity to various biological targets. Such interactions can cause toxicity. To confirm and validate the results from MTT assays, we tested three nontoxic (2, 47s, and 72) and three toxic (1, 35a, and 58) compounds in a cell viability assay measuring intracellular ATP content.
(§2) Figure 5 Effects of selected compounds on COS-1 cell viability. (A) Compound-induced necrosis was quantified with the LDH assay after a 24-h compound exposure. The data are presented as cytotoxicity percentage (% of maximal LDH release). (B) Cell viability was analyzed with the MTT assay after a 24-h compound exposure. (A,B) The data are means from 2–3 independent experiments with 3 replicate wells in each and are presented as % of control (vehicle-treated cells). The compounds have been grouped on the basis of the structure of the central part: a, amide; b, ether; c, N-acylated amine; d, amine; and e, imine. (C) The effects of selected compounds on cell viability as determined by ATP content after a 24-h compound exposure. The data are mean + SEM from three independent experiments and are presented as % of vehicle-treated cells.
(§3) For toxicity screening, COS-1 cells were cultured in DMEM (Sigma-Aldrich, Steinheim, Germany) supplemented with 10% fetal bovine serum, 100 U/mL penicillin, and 100 μg/mL streptomycin (all from Gibco, Thermo Scientific) at 37 °C with 5% CO2. The cells were plated on 96-well plates at 10 000 cells/well and exposed to test compounds at a concentration range of 1–30 μM on the following day. After a 24-h compound treatment, lactate dehydrogenase (LDH) and 3-(4,5-dimethylthiazol-2-yl)-2,5-diphenyltetrazolium bromide (MTT) assays were carried out as described previously.[48] Briefly, LDH activity was determined from 50 μL samples of cell culture medium, to which 50 μL of substrate solution [1.3 mM β-nicotinamide-adenine dinucleotide, 660 μM iodonitrotetrazolium, 54 mM L(+)-lactic acid, and 280 μM phenazine methosulfate in 0.2 M Tris-HCl, pH 8.2, all from Sigma-Aldrich] was added, and the plate was incubated for 30 min at room temperature. The reaction was stopped with acetic acid (final concentration 333 mM), and absorbance was measured at 490 nm. The absorbance values of the samples were normalized to maximal LDH release and spontaneous LDH release determined on the same plate. Mitochondrial metabolic activity was quantified by incubating the cells with 0.5 mg/mL MTT (from Sigma-Aldrich) for 2 h at 37 °C with 5% CO2, whereafter culture medium was removed and formazan crystals were dissolved in DMSO. The absorbance was measured at 550 nm, and absorbance at 650 nm was subtracted as background.

COS-1 cells [3] = assay: MTT assay (cell viability)
Text: as §1, §2, §3

[4] = COS-1, compound 3 µM, luciferase reporter activity relative to control
[5] = COS-1, compound 10 µM, luciferase reporter activity relative to control
[6] = COS-1, compound at 3 µM, luciferase reporter activity, % of control
[7] = COS-1, compound at 10 µM, luciferase reporter activity, % of control
[8] = COS-1, compound 3 µM, luciferase reporter activity, spread in separate STDEV column
[9] = COS-1, compound 10 µM, luciferase reporter activity, spread in separate STDEV column
[10] = COS-1, GATA4-NKX2-5 transcriptional synergy luciferase reporter assay, compound at 3 µM
[11] = COS-1, GATA4-NKX2-5 transcriptional synergy luciferase reporter assay, compound at 10 µM
[12] = 3 µM compound, GATA4–NKX2-5 transcriptional synergy reporter, COS-1 cells
[13] = 10 µM compound, GATA4–NKX2-5 transcriptional synergy reporter, COS-1 cells
[14] = COS-1, 3 µM, luciferase reporter activity, % of control
[15] = COS-1, 10 µM, luciferase reporter activity, % of control

Compound `CCN(CC)c1ccc(NC(=O)c2c(-c3cccc([N+](=O)[O-])c3)noc2C)cc1` [Compound 39g] has an activity at 3 µM ([1]; COS-1, 3 µM, luciferase reporter activity relative to control) of 93.4%, an LDH.1µM (COS-1 cells [2]; 1 µM) of 1.8 and an LDH.3µM (COS-1 cells [2]; 3 µM) of 1.19. It also gave an LDH.10µM (COS-1 cells [2]; 10 µM) of -0.41, an LDH.30µM (COS-1 cells [2]; 30 µM) of -0.68 and an MTT.1µM (COS-1 cells [3]; 1 µM, cell viability) of 105.86. The MTT.3µM (COS-1 cells [3]; 3 µM, cell viability) was 108.44, the MTT.10µM (COS-1 cells [3]; 10 µM, cell viability) was 106.4 and the MTT.30µM (COS-1 cells [3]; 30 µM, cell viability) was 104.14. The “toxicity class in the MTT assay” value (COS-1 cells [3]; 24-h exposure, classified at 10 μM) was “nontoxic (nontoxic compounds (cell viability >90%))”.
`CCN(CC)c1ccc(NC(=O)c2c(-c3ccccc3)nnn2CCC2OCCO2)cc1` [SI58] was tested, and the activity at 3 µM [1, 4] was 78.8% and the activity at 10 µM [1, 5] was 65%.
Work on `COc1ccc(-c2cc(N=Cc3ccc(N(C)C)cc3)n[nH]2)cc1` [SI91] yielded an activity at 3 µM [1, 6] of 94.2% and an activity at 10 µM [1, 7] of 89.2%.
`CCN(CC)c1ccc(/N=C(\SC)c2c(-c3ccccc3)noc2C)cc1` [Compound 24a] gave an activity at 3 µM [1, 6] of 72.7%.
With `CCN(CC)c1ccc(NC(=O)c2c(-c3c(Cl)cccc3Cl)noc2C)cc1` [Compound 39e, 3-(2,6-Dichlorophenyl)-N-[4-(diethylamino)phenyl]-5-methylisoxazole-4-carboxamide] the activity at 3 µM [1, 6] was 88.9%.
`CCN(CC)c1ccc(NC(=S)c2c(-c3c(Cl)cccc3Cl)noc2C)cc1` [SI53] showed an activity at 3 µM [1, 6] of 81.2% and an activity at 10 µM [1, 7] of 70.1%.
Work on `CCN(CC)c1ccc(C(=O)Nc2c(-c3ccccc3)noc2C)cc1` [Compound 27] yielded an activity at 3 µM [1, 6] of 98.5%.
Work on `CCC(C)NC(=O)c1cc(-c2ccco2)on1` (stereo not shown) [Compound 69] yielded an activity at 3 µM [1, 8] of 127% and an activity at 10 µM [1, 9] of 138%.
`O=C(Nc1cc(-c2cccs2)n[nH]1)c1ccccc1` [SI128] showed an activity at 3 µM [1, 10] of 110% and an activity at 10 µM [1, 11] of 69.3%.
`CCN(CC)c1ccc(NC(=O)C2CCCC2)cc1` [Compound 57] was tested, and the activity at 3 µM [1, 8] was 112% and the activity at 10 µM [1, 9] was 115%.
In the case of `CCSCCOC(=O)c1ccc(NC(=O)c2c(-c3ccccc3)noc2C)cc1` [SI1], the activity at 3 µM [1, 8] is reported as 115% and the activity at 10 µM [1, 9] is reported as 104%.
`CCN(CC)c1ccc(NC(=S)c2c(-c3ccccc3)noc2C)cc1` [Compound 23, N-[4-(Diethylamino)phenyl]-5-methyl-3-phenylisoxazole-4-carbothioamide] gave an activity at 3 µM [1, 6] of 90.6%.
For `CCCOC(=O)c1ccc(OCc2c(-c3ccccc3)noc2C)cc1` [Compound 34c, Propyl 4-[(5-Methyl-3-phenylisoxazol-4-yl)methoxy]benzoate], the activity at 3 µM [1, 4] was 97.7% and the activity at 10 µM [1, 5] was 107%.
`Cc1onc(-c2ccccc2)c1NC(=O)Nc1ccc(OC(F)(F)F)cc1` [SI23] gave an activity at 3 µM [1, 6] of 109% and an activity at 10 µM [1, 7] of 68.7%.
Work on `CCN(CC)c1ccc(NCc2c(-c3ccccc3)noc2C)cc1` [Compound 20, N^1,N^1-Diethyl-N^4-[(5-methyl-3-phenylisoxazol-4-yl)methyl]benzene-1,4-diamine] yielded an activity at 3 µM [1, 12] of 85.3% and an activity at 10 µM [1, 13] of 104%.
Work on `Cc1onc(-c2ccccc2)c1NC(=O)OC(C)(C)C` [SI17] yielded an activity at 3 µM [1, 14] of 99.2% and an activity at 10 µM [1, 15] of 87.1%.
`CCN(CC)c1ccc(/N=C(\SCCF)c2c(-c3ccccc3)noc2C)cc1` [Compound 24b] was tested, and the activity at 3 µM [1, 6] was 122% and the activity at 10 µM [1, 7] was 108%.
Compound `CCN(CC)C(=O)c1ccc(OCc2c(-c3ccccc3)noc2C)cc1` [Compound 36b] has an activity at 3 µM [1, 4] of 79.3%.
`Cc1onc(-c2ccccc2)c1NC(=O)CCCCCBr` [SI31] was tested, and the activity at 3 µM [1, 14] was 66.7% and the activity at 10 µM [1, 15] was 78.2%.
With `CCN(CC)c1ccc(C(=O)On2nnc3ccccc32)cc1` [SI22] the activity at 3 µM [1, 14] was 80.4% and the activity at 10 µM [1, 15] was 114%.
In the case of `Cc1onc(-c2ccccc2)c1C(=O)Nc1ccc(N(C)C)cc1` [Compound 4d, N-[4-(Dimethylamino)phenyl]-5-methyl-3-phenylisoxazole-4-carboxamide], the activity at 3 µM [1, 14] is reported as 88.1%.
`Cc1cc(NC(=O)c2c(-c3ccccc3)noc2C)ccc1C(C)C` [Compound 4e] gave an activity at 3 µM [1, 14] of 95.2%.
With `CCN(CC)c1ccc(CN(C)c2c(-c3ccccc3)noc2C)cc1` [Compound 30a, N-[4-(Diethylamino)benzyl]-N,5-dimethyl-3-phenylisoxazol-4-amine] the activity at 3 µM [1, 4] was 103%.
`CCN(CC)c1ccc(NC(=O)c2ccsc2)cc1` [Compound 55] gave an activity at 10 µM [1, 15] of 108%.
In the case of `CCN(CC)c1ccc(NC(=O)c2c(-c3ccccc3)noc2C)c(C)c1` [SI132], the activity at 3 µM [1, 10] is reported as 85.4% and the activity at 10 µM [1, 11] is reported as 61.6%.
`Cc1cc(-c2noc(C)c2C(=O)Nc2ccc(Cl)cc2)no1` [SI134] showed an activity at 3 µM [1, 10] of 82.9% and an activity at 10 µM [1, 11] of 87.7%.
Compound `COc1ccc(C(=O)Nc2c(-c3ccccc3)noc2C)cc1` [SI32] has an activity at 3 µM [1, 14] of 110% and an activity at 10 µM [1, 15] of 96.2%.
`CCN(CCO)c1ccc(NC(=O)c2c(-c3ccccc3)noc2C)cc1` [Compound 4b] gave an activity at 3 µM [1, 6] of 93.7%.
Compound `Cc1onc(-c2ccccc2)c1COc1ccc([N+](=O)[O-])cc1` [Compound 21b] has an activity at 3 µM [1, 14] of 94%.
Work on `CCN(CC)c1ccc(/N=C/c2onc(-c3ccccc3)c2C(=O)Nc2ccc(N(CC)CC)cc2)cc1` [Compound 48] yielded an activity at 3 µM [1, 14] of 74.9% and an activity at 10 µM [1, 15] of 54.1%.
In the case of `CCN(CC)c1ccc(NC(=O)c2ncoc2-c2ccco2)cc1` [Compound 47x], the activity at 3 µM [1, 8] is reported as 116% and the activity at 10 µM [1, 9] is reported as 116%.
Compound `Cc1onc(-c2ccccc2)c1N=Cc1ccc(N(CCO)CCO)cc1` [SI42] has an activity at 3 µM [1, 14] of 82.9% and an activity at 10 µM [1, 15] of 118%.
For `Cc1onc(-c2ccccc2)c1C(=O)Nc1ccc2c(c1)C(=O)CCC2` [SI14], the activity at 3 µM [1, 8] was 107% and the activity at 10 µM [1, 9] was 98.2%.
`CCN(CC)c1ccc(N(CCF)C(=O)c2c(-c3ccccc3)noc2C)cc1` [Compound 25b] showed an activity at 3 µM [1, 4] of 81.6%.
`CCN(CC)c1ccc(NC(=O)c2c(-c3ccc(Br)cc3)noc2C)cc1` [Compound 39i] showed an activity at 3 µM [1, 12] of 95.1%.
For `Cc1onc(-c2ccccc2)c1CNc1ccc2oc(-c3ccccc3)cc(=O)c2c1` [SI40], the activity at 3 µM [1, 12] was 94.8% and the activity at 10 µM [1, 13] was 99.6%.
